# Laboratory results published in patent US20110070232A1, “Combination Therapy with an Antitumor Alkaloid” (Pharma Mar, S.A., priority 2008, published 2011).
# Several values for one entry are separate records, joined by “and”; a condition that tells them apart may be missing. Equal values may be shown once. Read-outs that look alike come from different tables or passages of the source.
# How the values were obtained:
# Format in all cases: in vivo, mice
# MRI-H-254 tumors = tested on: MRI-H-254 tumors
# Method: Female athymic nude mice (Harlan Sprague Dawley, Madison, Wis.) were utilized for all experiments. Animals were housed in ventilated rack caging with food and water ad libitum. The mice were acclimated for at least 5 days prior to tumor implantation with tumor fragments.
# Treatments were initiated on DPI 20.
# (§1) Tumor size measurements were recorded twice weekly from the treatment initiation until the termination of the study.
# (§2) Mean, standard deviation and standard error of the mean were determined for tumor volume for all animal groups at all assessments. Student's t test was performed on tumor volumes at each measurement day, including at the end of the study, to determine whether there were any statistically significant differences between combination treatment groups and single monotherapy treatment groups.
# HepG2 tumors = tested on: HepG2 tumors
# Method: Female athymic nude mice (Harlan Sprague Dawley, Madison, Wis.) were utilized for all experiments. Animals were housed in ventilated rack caging with food and water ad libitum. The mice were acclimated for at least 5 days prior to tumor implantation with a tumor cell suspension.
# The tumor model used in these studies was HepG2 cell line, which was obtained from the ATCC (Manassas, Va.).
# HepG2 cells were grown in MEM supplemented with 10% FBS, 1.5 g/L sodium bicarbonate, 0.1 mM non-essential amino acids, 1.0 mM sodium pyruvate, and 2 mM L-glutamine. Each animal was implanted SC on the right flank, using a 13G trochar, with 5×10^6 HepG2 cells in a 0.2 mL suspension of 50% Matrigel and 50% serum free medium, without antibiotics. Bacterial cultures were performed on aliquots of the cells prepared for implantation.
# Treatments were initiated on DPI 19.
# as §1, §2
# NCI-H460 tumors = conditions: for % Inhibition: PM00104 0.9 mg/kg/day, single agents and combination, r5-r13 = day 9,13,16,21,24,27,30,38,41
# Method: Female athymic nude mice (Harlan Sprague Dawley, Madison, Wis.) were utilized for all experiments. Animals were housed in ventilated rack caging with food and water ad libitum. The mice were acclimated for at least 5 days prior to tumor implantation.
# The tumor model used in this study was NCI-H460 cell line which is a human NSCLC cell line obtained from the ATCC (Manassas, Va.). […] Cells from in vitro passage 7 were implanted SC into study mice using a 1 ml syringe with a 13G trocar: 5×10^6 cells/mouse in 0.2 ml 50% Matrigel/50% RPMI medium of NCI-H460 without serum or antibiotics. Bacterial culture was taken on cells used to implant the study.
# Treatments were initiated on DPI 9.
# Tumor size measurements were recorded 2-3 times/week from the treatment initiation until the termination of the study.
# as §2
# [1] = PM00104 0.90 IV, docetaxel 16 IP, oxaliplatin 8 IP mg/kg/day (G2, G3, G5, G7, G9), DPI 20, 27, 34
# [2] = day 19, PM00104 0.60, sorafenib 60 mg/kg/day
# [3] = day 19, PM00104 0.90, sorafenib 60 mg/kg/day
# [4] = day 22, PM00104 0.60, sorafenib 60 mg/kg/day
# [5] = day 22, PM00104 0.90, sorafenib 60 mg/kg/day
# [6] = day 26, PM00104 0.60, sorafenib 60 mg/kg/day
# [7] = day 26, PM00104 0.90, sorafenib 60 mg/kg/day
# [8] = day 30, PM00104 0.60, sorafenib 60 mg/kg/day
# [9] = day 30, PM00104 0.90, sorafenib 60 mg/kg/day
# [10] = day 33, PM00104 0.60, sorafenib 60 mg/kg/day
# [11] = day 33, PM00104 0.90, sorafenib 60 mg/kg/day
# [12] = PM00104 0.9 mg/kg/day IV and/or Bevacizumab 5 mg/kg/day IP
compound,measurement,setting,value
COc1c(C)cc2c(c1O)[C@@H]1[C@@H]3Cc4c(OC(C)=O)c(C)c5c(c4[C@H](CNC(=O)/C=C/c4cccc(C(F)(F)F)c4)N3[C@@H](O)[C@H](C2)N1C)OCO5 [PM00104],% T/C on day 20,MRI-H-254 tumors; [1],100.2%
same,% T/C on day 23,MRI-H-254 tumors; [1],109.3%
same,% T/C on day 27,MRI-H-254 tumors; [1],71.6%
same,% T/C on day 30,MRI-H-254 tumors; [1],65.4%
same,% T/C on day 33,MRI-H-254 tumors; [1],54.2%
same,% T/C on day 36,MRI-H-254 tumors; [1],50.0%
same,% T/C on day 40,MRI-H-254 tumors; [1],36.1%
same,% T/C on day 48,MRI-H-254 tumors; [1],26.9%
same,% Inhibition,"MRI-H-254 tumors; day 20, PM00104 0.9 and docetaxel 8 mg/kg/day",−0.2%
same,% Inhibition,"MRI-H-254 tumors; day 20, PM00104 0.9 and docetaxel 16 mg/kg/day",−0.2%
same,% Inhibition,"MRI-H-254 tumors; day 20, PM00104 0.9 and oxaliplatin 4 mg/kg/day",−0.2%
same,% Inhibition,"MRI-H-254 tumors; day 20, PM00104 0.9 and oxaliplatin 8 mg/kg/day",−0.2%
same,% Inhibition,"MRI-H-254 tumors; day 23, PM00104 0.9 and docetaxel 8 mg/kg/day",−9.3%
same,% Inhibition,"MRI-H-254 tumors; day 23, PM00104 0.9 and docetaxel 16 mg/kg/day",−9.3%
same,% Inhibition,"MRI-H-254 tumors; day 23, PM00104 0.9 and oxaliplatin 4 mg/kg/day",−9.3%
same,% Inhibition,"MRI-H-254 tumors; day 23, PM00104 0.9 and oxaliplatin 8 mg/kg/day",−9.3%
same,% Inhibition,"MRI-H-254 tumors; day 27, PM00104 0.9 and docetaxel 8 mg/kg/day",28.4%
same,% Inhibition,"MRI-H-254 tumors; day 27, PM00104 0.9 and docetaxel 16 mg/kg/day",28.4%
same,% Inhibition,"MRI-H-254 tumors; day 27, PM00104 0.9 and oxaliplatin 4 mg/kg/day",28.4%
same,% Inhibition,"MRI-H-254 tumors; day 27, PM00104 0.9 and oxaliplatin 8 mg/kg/day",28.4%
same,% Inhibition,"MRI-H-254 tumors; day 30, PM00104 0.9 and docetaxel 8 mg/kg/day",34.6%
same,% Inhibition,"MRI-H-254 tumors; day 30, PM00104 0.9 and docetaxel 16 mg/kg/day",34.6%
same,% Inhibition,"MRI-H-254 tumors; day 30, PM00104 0.9 and oxaliplatin 4 mg/kg/day",34.6%
same,% Inhibition,"MRI-H-254 tumors; day 30, PM00104 0.9 and oxaliplatin 8 mg/kg/day",34.6%
same,% Inhibition,"MRI-H-254 tumors; day 33, PM00104 0.9 and docetaxel 8 mg/kg/day",45.8%
same,% Inhibition,"MRI-H-254 tumors; day 33, PM00104 0.9 and docetaxel 16 mg/kg/day",45.8%
same,% Inhibition,"MRI-H-254 tumors; day 33, PM00104 0.9 and oxaliplatin 4 mg/kg/day",45.8%
same,% Inhibition,"MRI-H-254 tumors; day 33, PM00104 0.9 and oxaliplatin 8 mg/kg/day",45.8%
same,% Inhibition,"MRI-H-254 tumors; day 36, PM00104 0.9 and docetaxel 8 mg/kg/day",50.0%
same,% Inhibition,"MRI-H-254 tumors; day 36, PM00104 0.9 and docetaxel 16 mg/kg/day",50.0%
same,% Inhibition,"MRI-H-254 tumors; day 36, PM00104 0.9 and oxaliplatin 4 mg/kg/day",50.0%
same,% Inhibition,"MRI-H-254 tumors; day 36, PM00104 0.9 and oxaliplatin 8 mg/kg/day",50.0%
same,% Inhibition,"MRI-H-254 tumors; day 40, PM00104 0.9 and docetaxel 8 mg/kg/day",63.9%
same,% Inhibition,"MRI-H-254 tumors; day 40, PM00104 0.9 and docetaxel 16 mg/kg/day",63.9%
same,% Inhibition,"MRI-H-254 tumors; day 40, PM00104 0.9 and oxaliplatin 4 mg/kg/day",63.9%
same,% Inhibition,"MRI-H-254 tumors; day 40, PM00104 0.9 and oxaliplatin 8 mg/kg/day",63.9%
same,% Inhibition,"MRI-H-254 tumors; day 48, PM00104 0.9 and docetaxel 8 mg/kg/day",73.1%
same,% Inhibition,"MRI-H-254 tumors; day 48, PM00104 0.9 and docetaxel 16 mg/kg/day",73.1%
same,% Inhibition,"MRI-H-254 tumors; day 48, PM00104 0.9 and oxaliplatin 4 mg/kg/day",73.1%
same,% Inhibition,"MRI-H-254 tumors; day 48, PM00104 0.9 and oxaliplatin 8 mg/kg/day",73.1%
same,% Inhibition,"HepG2 tumors; day 19, PM00104 0.60, sorafenib 30 mg/kg/day",8.4%
same,% Inhibition,HepG2 tumors; [2],8.4%
same,% T/C,HepG2 tumors; [2],91.6%
same,% Inhibition,"HepG2 tumors; day 19, PM00104 0.90, sorafenib 30 mg/kg/day",8.5%
same,% Inhibition,HepG2 tumors; [3],8.5%
same,% T/C,HepG2 tumors; [3],91.5%
same,% Inhibition,"HepG2 tumors; day 22, PM00104 0.60, sorafenib 30 mg/kg/day",28.1%
same,% Inhibition,HepG2 tumors; [4],28.1%
same,% T/C,HepG2 tumors; [4],71.9%
same,% Inhibition,"HepG2 tumors; day 22, PM00104 0.90, sorafenib 30 mg/kg/day",40.3%
same,% Inhibition,HepG2 tumors; [5],40.3%
same,% T/C,HepG2 tumors; [5],59.7%
same,% Inhibition,"HepG2 tumors; day 26, PM00104 0.60, sorafenib 30 mg/kg/day",48.3%
same,% Inhibition,HepG2 tumors; [6],48.3%
same,% T/C,HepG2 tumors; [6],51.7%
same,% Inhibition,"HepG2 tumors; day 26, PM00104 0.90, sorafenib 30 mg/kg/day",59.5%
same,% Inhibition,HepG2 tumors; [7],59.5%
same,% T/C,HepG2 tumors; [7],40.5%
same,% Inhibition,"HepG2 tumors; day 30, PM00104 0.60, sorafenib 30 mg/kg/day",59.2%
same,% Inhibition,HepG2 tumors; [8],59.2%
same,% T/C,HepG2 tumors; [8],40.8%
same,% Inhibition,"HepG2 tumors; day 30, PM00104 0.90, sorafenib 30 mg/kg/day",76.1%
same,% Inhibition,HepG2 tumors; [9],76.1%
same,% T/C,HepG2 tumors; [9],23.9%
same,% Inhibition,"HepG2 tumors; day 33, PM00104 0.60, sorafenib 30 mg/kg/day",62.4%
same,% Inhibition,HepG2 tumors; [10],62.4%
same,% T/C,HepG2 tumors; [10],37.6%
same,% Inhibition,"HepG2 tumors; day 33, PM00104 0.90, sorafenib 30 mg/kg/day",73.0%
same,% Inhibition,HepG2 tumors; [11],73.0%
same,% T/C,HepG2 tumors; [11],27.0%
same,% T/C on day 9,NCI-H460 tumors; [12],96.3%
same,% T/C on day 13,NCI-H460 tumors; [12],97.8%
same,% T/C on day 16,NCI-H460 tumors; [12],75.9%
same,% T/C on day 21,NCI-H460 tumors; [12],73.2%
same,% T/C on day 24,NCI-H460 tumors; [12],66.8%
same,% T/C on day 27,NCI-H460 tumors; [12],43.8%
same,% T/C on day 30,NCI-H460 tumors; [12],45.1%
same,% T/C on day 38,NCI-H460 tumors; [12],125.1%
same,% T/C on day 41,NCI-H460 tumors; [12],132.5%
same,% Inhibition,NCI-H460 tumors; bevacizumab 5 mg/kg/day,24.1% and 33.2%
same,% Inhibition,NCI-H460 tumors; temsirolimus 10 mg/kg/day,24.1% and 33.2%
same,% Inhibition,NCI-H460 tumors; temsirolimus 20 mg/kg/day,24.1% and 33.2%
